Results from article PMC6193938, “Characterization of a novel AICARFT inhibitor which potently elevates ZMP and has anti-tumor activity in murine models” (Scientific Reports, 2018).

Tests used:
IRAK4 = target: T1, IRAK4 (Homo sapiens, UniProt Q9NWZ3); assay: CEREP protein kinase assay; format: biochemical
T1 construct: purchased CEREP Panlabs (Eurofins)
T1 sequence (Q9NWZ3 1-460): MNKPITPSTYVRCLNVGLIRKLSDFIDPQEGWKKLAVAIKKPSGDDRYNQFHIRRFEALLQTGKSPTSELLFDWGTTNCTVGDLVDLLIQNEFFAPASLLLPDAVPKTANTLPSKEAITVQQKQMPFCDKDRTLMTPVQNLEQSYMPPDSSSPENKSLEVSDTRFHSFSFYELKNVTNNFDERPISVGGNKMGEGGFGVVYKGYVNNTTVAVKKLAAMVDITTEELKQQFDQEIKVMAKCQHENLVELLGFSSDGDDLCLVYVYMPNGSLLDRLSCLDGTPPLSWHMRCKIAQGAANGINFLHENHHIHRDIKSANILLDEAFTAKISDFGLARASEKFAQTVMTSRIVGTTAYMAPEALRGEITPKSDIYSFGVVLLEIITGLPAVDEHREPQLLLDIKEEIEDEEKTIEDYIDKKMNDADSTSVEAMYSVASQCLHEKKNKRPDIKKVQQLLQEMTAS

FLT4 = target: T2, FLT4 (Homo sapiens, UniProt P35916); assay: CEREP protein kinase assay; format: biochemical
T2 construct: purchased CEREP Panlabs (Eurofins)

HER2 = target: T3, HER2 (Homo sapiens, UniProt P04626); assay: CEREP protein kinase assay; format: biochemical
T3 construct: purchased CEREP Panlabs (Eurofins)

ERK2 = target: T4, ERK2 (Homo sapiens, UniProt P28482); assay: CEREP protein kinase assay; format: biochemical
T4 construct: purchased CEREP Panlabs (Eurofins)

DDR2 = target: T5, DDR2 (Homo sapiens, UniProt Q16832); assay: CEREP protein kinase assay; format: biochemical
T5 construct: purchased CEREP Panlabs (Eurofins)
T5 sequence (Q16832 22-855): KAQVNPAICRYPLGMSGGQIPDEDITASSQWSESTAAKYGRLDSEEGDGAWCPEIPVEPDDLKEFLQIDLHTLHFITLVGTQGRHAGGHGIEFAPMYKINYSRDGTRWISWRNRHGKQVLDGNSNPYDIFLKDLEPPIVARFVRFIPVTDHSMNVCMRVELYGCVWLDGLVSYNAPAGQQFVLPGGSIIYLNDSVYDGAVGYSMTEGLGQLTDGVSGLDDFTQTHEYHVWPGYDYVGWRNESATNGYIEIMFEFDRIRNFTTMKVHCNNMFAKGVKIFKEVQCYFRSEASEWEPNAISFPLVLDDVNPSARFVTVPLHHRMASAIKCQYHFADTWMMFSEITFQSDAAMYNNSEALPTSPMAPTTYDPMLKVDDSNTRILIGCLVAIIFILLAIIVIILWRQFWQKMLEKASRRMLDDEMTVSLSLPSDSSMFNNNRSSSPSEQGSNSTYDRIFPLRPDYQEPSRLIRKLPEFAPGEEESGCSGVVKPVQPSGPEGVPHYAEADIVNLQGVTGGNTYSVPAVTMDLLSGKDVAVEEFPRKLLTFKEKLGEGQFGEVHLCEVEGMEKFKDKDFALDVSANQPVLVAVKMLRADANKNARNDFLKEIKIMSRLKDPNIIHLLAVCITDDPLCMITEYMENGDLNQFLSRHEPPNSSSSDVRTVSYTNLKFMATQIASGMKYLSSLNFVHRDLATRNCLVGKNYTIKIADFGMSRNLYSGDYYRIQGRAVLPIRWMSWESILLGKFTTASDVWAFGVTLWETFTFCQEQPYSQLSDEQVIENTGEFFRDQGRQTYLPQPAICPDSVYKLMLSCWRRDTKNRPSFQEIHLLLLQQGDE

RSK3 = target: T6, RSK3 (Homo sapiens, UniProt Q15349); assay: CEREP protein kinase assay; format: biochemical
T6 construct: purchased CEREP Panlabs (Eurofins)

LIMK1 = target: T7, LIMK1 (Homo sapiens, UniProt P53667); assay: CEREP protein kinase assay; format: biochemical
T7 construct: purchased CEREP Panlabs (Eurofins)

TNK2 = target: T8, TNK2 (Homo sapiens, UniProt Q07912); assay: CEREP protein kinase assay; format: biochemical
T8 construct: purchased CEREP Panlabs (Eurofins)

CHK2 = target: T9, CHK2 (Homo sapiens, UniProt O96017); assay: CEREP protein kinase assay; format: biochemical
T9 construct: purchased CEREP Panlabs (Eurofins)

ALK4 = target: T10, ALK4 (Homo sapiens, UniProt P36896); assay: CEREP protein kinase assay; format: biochemical
T10 construct: purchased CEREP Panlabs (Eurofins)
T10 sequence (P36896 24-505): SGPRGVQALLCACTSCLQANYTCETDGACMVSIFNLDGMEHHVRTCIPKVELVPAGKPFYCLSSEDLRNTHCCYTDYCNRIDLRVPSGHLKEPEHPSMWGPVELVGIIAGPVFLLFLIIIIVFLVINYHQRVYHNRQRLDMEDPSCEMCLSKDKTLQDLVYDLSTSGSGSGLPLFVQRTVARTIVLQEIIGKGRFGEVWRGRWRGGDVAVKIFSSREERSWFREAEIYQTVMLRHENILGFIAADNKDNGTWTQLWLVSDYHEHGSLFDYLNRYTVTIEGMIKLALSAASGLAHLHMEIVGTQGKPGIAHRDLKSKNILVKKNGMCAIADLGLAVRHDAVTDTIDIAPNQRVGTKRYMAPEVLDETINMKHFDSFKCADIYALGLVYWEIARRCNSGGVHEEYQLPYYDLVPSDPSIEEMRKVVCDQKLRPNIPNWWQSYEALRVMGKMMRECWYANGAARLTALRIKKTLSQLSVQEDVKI

TYK2 = target: T11, TYK2 (Homo sapiens, UniProt P29597); assay: CEREP protein kinase assay; format: biochemical
T11 construct: purchased CEREP Panlabs (Eurofins)

IGF1R = target: T12, IGF1R (Homo sapiens, UniProt P08069); assay: CEREP protein kinase assay; format: biochemical
T12 construct: purchased CEREP Panlabs (Eurofins)

NCI-H460 xenograft = assay: Antitumor efficacy and tumor metabolites, mouse xenograft, normal folate diet; format: in vivo; conditions: NCI-H460 tumors; after 13 days of treatment; normal chow
HIPK2 = target: T13, HIPK2 (Homo sapiens, UniProt Q9H2X6); assay: CEREP protein kinase assay; format: biochemical
T13 construct: purchased CEREP Panlabs (Eurofins)
T13 sequence (Q9H2X6 whole entry): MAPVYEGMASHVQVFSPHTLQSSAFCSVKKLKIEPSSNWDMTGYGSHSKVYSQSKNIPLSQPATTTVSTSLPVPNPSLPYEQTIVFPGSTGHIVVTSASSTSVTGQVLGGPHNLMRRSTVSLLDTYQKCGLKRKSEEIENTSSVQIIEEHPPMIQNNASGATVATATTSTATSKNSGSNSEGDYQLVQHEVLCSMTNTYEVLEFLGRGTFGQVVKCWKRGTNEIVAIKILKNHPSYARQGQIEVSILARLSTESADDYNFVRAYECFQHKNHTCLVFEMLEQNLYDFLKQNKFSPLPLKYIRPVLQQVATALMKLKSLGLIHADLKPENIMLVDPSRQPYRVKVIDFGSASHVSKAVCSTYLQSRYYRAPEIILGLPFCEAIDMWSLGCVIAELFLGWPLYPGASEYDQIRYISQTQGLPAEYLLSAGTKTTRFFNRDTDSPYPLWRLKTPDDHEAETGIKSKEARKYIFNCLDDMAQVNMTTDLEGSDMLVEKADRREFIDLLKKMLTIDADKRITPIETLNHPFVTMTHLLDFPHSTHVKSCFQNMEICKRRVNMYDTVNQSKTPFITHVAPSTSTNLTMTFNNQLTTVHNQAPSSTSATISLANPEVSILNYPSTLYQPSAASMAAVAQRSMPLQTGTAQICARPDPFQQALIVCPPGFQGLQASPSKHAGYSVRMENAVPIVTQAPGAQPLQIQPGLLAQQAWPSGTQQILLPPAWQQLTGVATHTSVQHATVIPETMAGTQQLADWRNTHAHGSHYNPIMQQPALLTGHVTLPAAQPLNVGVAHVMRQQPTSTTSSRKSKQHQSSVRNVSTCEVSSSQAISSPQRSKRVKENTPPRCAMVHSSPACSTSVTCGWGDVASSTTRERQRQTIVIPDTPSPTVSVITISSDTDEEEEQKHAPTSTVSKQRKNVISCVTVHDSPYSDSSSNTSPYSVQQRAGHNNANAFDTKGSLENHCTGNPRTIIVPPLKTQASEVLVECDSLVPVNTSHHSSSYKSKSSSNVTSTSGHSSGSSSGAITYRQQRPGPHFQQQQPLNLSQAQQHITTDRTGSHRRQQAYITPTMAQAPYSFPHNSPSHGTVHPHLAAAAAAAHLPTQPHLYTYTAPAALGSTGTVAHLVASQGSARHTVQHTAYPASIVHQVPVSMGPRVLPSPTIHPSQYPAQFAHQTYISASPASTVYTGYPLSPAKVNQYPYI

T6 sequence (Q15349 whole entry): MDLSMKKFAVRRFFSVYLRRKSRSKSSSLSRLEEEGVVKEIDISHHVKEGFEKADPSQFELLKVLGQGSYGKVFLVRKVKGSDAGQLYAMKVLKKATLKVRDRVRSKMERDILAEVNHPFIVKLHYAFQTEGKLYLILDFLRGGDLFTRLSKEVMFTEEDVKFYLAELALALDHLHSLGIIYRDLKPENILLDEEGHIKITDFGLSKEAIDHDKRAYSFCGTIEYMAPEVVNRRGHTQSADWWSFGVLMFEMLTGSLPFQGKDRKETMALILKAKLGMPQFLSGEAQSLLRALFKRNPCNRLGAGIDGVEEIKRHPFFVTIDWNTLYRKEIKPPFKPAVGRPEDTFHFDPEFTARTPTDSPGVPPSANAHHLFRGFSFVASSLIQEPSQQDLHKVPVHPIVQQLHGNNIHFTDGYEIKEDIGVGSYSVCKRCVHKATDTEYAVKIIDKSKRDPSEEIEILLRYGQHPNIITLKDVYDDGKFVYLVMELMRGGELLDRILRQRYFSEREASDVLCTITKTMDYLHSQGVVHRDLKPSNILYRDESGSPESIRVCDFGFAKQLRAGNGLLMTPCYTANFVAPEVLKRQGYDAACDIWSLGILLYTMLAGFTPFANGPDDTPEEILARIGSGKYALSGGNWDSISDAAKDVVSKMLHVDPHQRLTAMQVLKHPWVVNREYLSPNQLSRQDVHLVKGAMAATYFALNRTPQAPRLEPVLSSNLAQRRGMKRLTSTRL
T12 sequence (P08069 31-1367): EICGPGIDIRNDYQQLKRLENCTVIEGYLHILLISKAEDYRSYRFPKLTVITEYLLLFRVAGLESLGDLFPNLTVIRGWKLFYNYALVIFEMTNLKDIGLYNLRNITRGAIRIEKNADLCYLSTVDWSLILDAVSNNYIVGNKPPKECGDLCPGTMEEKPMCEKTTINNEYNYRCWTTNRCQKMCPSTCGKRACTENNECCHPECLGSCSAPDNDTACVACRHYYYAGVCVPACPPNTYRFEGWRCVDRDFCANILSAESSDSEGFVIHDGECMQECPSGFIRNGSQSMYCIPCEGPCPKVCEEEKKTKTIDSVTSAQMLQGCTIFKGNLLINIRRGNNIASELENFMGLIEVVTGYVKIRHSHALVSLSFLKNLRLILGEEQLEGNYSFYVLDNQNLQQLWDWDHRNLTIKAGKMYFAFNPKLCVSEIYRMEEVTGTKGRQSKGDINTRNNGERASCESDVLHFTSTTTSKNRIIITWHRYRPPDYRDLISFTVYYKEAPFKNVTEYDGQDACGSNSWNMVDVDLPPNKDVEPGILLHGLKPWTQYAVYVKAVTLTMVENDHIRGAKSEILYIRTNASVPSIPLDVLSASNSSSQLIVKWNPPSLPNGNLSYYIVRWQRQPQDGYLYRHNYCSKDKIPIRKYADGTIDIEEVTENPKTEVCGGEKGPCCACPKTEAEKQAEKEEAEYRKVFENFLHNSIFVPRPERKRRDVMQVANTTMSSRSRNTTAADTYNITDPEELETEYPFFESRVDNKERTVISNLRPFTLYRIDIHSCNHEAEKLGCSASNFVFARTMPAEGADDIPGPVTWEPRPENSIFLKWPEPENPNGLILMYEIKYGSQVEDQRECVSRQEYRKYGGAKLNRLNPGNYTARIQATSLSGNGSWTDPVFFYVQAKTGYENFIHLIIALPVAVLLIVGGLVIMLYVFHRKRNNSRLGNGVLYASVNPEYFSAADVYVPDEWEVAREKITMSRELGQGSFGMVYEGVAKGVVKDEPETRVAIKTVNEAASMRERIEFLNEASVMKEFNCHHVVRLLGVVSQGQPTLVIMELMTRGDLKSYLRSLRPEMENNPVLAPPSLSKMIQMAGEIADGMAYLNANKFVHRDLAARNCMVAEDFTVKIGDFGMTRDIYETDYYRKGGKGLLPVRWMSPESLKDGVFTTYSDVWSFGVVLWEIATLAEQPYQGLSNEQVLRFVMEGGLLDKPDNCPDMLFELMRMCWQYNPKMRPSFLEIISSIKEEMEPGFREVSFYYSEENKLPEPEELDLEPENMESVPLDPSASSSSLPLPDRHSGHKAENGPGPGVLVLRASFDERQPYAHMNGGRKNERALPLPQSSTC
T2 sequence (P35916 25-1363): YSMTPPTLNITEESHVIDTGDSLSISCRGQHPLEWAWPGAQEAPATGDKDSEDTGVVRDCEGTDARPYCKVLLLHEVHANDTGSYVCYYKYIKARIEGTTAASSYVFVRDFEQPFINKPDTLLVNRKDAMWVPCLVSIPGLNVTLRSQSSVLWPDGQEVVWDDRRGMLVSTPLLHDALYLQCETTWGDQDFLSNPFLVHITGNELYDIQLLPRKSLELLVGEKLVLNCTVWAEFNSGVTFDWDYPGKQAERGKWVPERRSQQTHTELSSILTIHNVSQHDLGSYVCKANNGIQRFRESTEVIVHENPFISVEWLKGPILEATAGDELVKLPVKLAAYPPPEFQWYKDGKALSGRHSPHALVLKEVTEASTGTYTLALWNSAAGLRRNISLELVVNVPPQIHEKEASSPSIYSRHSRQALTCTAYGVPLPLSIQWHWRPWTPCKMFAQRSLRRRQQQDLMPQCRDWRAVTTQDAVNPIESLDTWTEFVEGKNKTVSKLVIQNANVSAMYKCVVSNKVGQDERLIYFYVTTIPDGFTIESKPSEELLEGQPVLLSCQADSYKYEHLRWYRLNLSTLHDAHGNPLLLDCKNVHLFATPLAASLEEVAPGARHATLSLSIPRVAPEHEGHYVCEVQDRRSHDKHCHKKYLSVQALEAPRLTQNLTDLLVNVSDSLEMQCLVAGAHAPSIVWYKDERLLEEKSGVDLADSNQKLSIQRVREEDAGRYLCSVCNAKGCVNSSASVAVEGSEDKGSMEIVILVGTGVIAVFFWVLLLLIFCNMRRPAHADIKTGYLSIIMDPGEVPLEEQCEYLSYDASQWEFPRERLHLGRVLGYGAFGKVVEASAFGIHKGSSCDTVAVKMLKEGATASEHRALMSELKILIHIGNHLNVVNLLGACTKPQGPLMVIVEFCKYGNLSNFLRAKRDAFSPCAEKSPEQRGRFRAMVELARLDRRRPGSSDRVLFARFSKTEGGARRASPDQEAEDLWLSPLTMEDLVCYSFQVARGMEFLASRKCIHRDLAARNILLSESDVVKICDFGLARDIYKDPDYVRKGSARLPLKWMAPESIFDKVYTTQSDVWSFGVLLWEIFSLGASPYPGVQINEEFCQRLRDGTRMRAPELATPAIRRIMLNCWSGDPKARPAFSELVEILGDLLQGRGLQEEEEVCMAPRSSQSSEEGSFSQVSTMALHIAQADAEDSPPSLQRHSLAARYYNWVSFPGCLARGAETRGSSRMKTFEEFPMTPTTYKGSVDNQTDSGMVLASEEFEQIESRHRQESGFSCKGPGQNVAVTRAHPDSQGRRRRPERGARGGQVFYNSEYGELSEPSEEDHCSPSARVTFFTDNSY
T4 sequence (P28482 whole entry): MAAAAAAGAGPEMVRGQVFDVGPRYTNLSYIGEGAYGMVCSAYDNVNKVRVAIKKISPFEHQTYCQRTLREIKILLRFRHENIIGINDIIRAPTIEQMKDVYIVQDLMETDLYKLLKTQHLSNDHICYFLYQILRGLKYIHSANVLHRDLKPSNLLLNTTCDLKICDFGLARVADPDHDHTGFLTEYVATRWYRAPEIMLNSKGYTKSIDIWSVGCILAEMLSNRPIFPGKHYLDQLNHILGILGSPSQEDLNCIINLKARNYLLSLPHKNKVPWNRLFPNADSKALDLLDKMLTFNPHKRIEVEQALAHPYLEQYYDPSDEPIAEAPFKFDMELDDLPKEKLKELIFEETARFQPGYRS

O=c1[nH]ccc2cc(F)c(NS(=O)(=O)c3ccc(N4CC[C@@H](O)C4)s3)cc12 [LSN3213128, N-(6-Fluoro-1-oxo-1,2-dihydroisoquinolin-7-yl)-5-[(3R)-3-hydroxypyrrolidin-1-yl]thiophene-2-sulfonamide]
inhibition at 0.2 µM (IRAK4; @ 0.2 uM): -4.69%
inhibition at 2 µM (IRAK4; @ 2 uM): 0.428%
inhibition at 20 µM (IRAK4; @ 20 uM): -0.827%
inhibition at 0.2 µM (FLT4; @ 0.2 uM): -9.28%
inhibition at 2 µM (FLT4; @ 2 uM): 6.53%
inhibition at 20 µM (FLT4; @ 20 uM): 70.5%
inhibition at 0.2 µM (HER2; @ 0.2 uM): 6.55%
inhibition at 2 µM (HER2; @ 2 uM): 12.4%
inhibition at 20 µM (HER2; @ 20 uM): 9.08%
inhibition at 0.2 µM (ERK2; @ 0.2 uM): -4.25%
inhibition at 2 µM (ERK2; @ 2 uM): 11.1%
inhibition at 20 µM (ERK2; @ 20 uM): 60.3%
inhibition at 0.2 µM (DDR2; @ 0.2 uM): -16.5%
inhibition at 2 µM (DDR2; @ 2 uM): -13.4%
inhibition at 20 µM (DDR2; @ 20 uM): -3.1%
inhibition at 0.2 µM (RSK3; @ 0.2 uM): -5.85%
inhibition at 2 µM (RSK3; @ 2 uM): -1.32%
inhibition at 20 µM (RSK3; @ 20 uM): 9.07%
inhibition at 0.2 µM (LIMK1; @ 0.2 uM): -7.18%
inhibition at 2 µM (LIMK1; @ 2 uM): 5.89%
inhibition at 20 µM (LIMK1; @ 20 uM): 0.523%
inhibition at 0.2 µM (TNK2; @ 0.2 uM): -2.49%
inhibition at 2 µM (TNK2; @ 2 uM): 16.4%
inhibition at 20 µM (TNK2; @ 20 uM): 52.5%
inhibition at 0.2 µM (CHK2; @ 0.2 uM): -9.59%
inhibition at 2 µM (CHK2; @ 2 uM): 14.3%
inhibition at 20 µM (CHK2; @ 20 uM): 8.93%
inhibition at 0.2 µM (ALK4; @ 0.2 uM): -10.5%
inhibition at 2 µM (ALK4; @ 2 uM): 10.4%
inhibition at 20 µM (ALK4; @ 20 uM): 55%
inhibition at 0.2 µM (TYK2; @ 0.2 uM): -6.85%
inhibition at 2 µM (TYK2; @ 2 uM): -1.32%
inhibition at 20 µM (TYK2; @ 20 uM): 35.1%
inhibition at 0.2 µM (IGF1R; @ 0.2 uM): -0.761%
inhibition at 2 µM (IGF1R; @ 2 uM): 6.61%
inhibition at 20 µM (IGF1R; @ 20 uM): 60.3%
tumor ZMP levels (NCI-H460 xenograft): dramatically elevated
tumor dUMP levels (NCI-H460 xenograft): remained constant
inhibition at 0.2 µM (HIPK2; @ 0.2 uM): -9.39%
inhibition at 2 µM (HIPK2; @ 2 uM): 6.25%
inhibition at 20 µM (HIPK2; @ 20 uM): 14.1%
